The values that follow come from ChEMBL document CHEMBL1681715, “4-aminopyrimidine-5-carbaldehyde oximes as potent VEGFR-2 inhibitors. Part II” (Bioorg Med Chem Lett, 2011).

Structures are written as SMILES. pIC50: −log10 of the molar value. Activity calls are given as the source filed them. The rule behind the calls is not given here.

For series [1], the target named is Vascular endothelial growth factor receptor 2 (Homo sapiens, UniProt P35968).
The target in series [2] is Vascular endothelial growth factor receptor 1 (Homo sapiens, UniProt P17948). Nature of the series: Inhibition of FLT1.
Sequence of Vascular endothelial growth factor receptor 1 (P17948 whole entry): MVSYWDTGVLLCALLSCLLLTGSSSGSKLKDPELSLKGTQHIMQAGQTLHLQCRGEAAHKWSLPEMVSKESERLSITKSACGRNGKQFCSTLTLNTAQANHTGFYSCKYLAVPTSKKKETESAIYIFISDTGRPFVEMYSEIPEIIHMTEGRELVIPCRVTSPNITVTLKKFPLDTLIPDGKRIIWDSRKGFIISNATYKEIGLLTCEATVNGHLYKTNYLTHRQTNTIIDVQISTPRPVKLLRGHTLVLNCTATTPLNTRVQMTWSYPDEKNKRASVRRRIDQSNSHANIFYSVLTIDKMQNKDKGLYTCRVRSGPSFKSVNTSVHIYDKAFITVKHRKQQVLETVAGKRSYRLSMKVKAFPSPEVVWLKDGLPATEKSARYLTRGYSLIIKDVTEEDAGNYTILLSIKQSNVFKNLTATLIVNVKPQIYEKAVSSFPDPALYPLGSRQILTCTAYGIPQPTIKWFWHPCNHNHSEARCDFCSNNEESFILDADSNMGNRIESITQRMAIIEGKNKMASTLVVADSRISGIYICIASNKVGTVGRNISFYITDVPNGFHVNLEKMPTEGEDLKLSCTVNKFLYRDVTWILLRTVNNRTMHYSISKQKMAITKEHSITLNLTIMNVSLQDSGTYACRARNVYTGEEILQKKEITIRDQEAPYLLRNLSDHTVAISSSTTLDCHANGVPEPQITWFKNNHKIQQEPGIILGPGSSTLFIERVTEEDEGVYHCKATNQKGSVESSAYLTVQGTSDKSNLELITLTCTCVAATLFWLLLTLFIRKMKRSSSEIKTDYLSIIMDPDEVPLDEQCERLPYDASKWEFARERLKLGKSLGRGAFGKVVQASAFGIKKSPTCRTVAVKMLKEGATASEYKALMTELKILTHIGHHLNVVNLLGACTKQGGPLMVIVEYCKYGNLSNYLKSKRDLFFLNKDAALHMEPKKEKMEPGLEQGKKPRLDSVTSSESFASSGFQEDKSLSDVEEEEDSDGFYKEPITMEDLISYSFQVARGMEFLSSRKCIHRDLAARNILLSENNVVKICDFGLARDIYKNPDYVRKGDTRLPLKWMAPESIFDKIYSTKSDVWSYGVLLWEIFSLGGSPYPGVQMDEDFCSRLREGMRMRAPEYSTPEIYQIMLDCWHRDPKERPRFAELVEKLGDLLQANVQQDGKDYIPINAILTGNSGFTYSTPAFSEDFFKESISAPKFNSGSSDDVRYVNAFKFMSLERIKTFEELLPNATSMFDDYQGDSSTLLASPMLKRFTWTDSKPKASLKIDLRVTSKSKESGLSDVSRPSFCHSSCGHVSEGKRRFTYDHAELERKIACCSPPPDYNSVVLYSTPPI
Series [3] addresses T1, Receptor-type tyrosine-protein kinase FLT3 (Homo sapiens, UniProt P36888).
T1 sequence (P36888 whole entry): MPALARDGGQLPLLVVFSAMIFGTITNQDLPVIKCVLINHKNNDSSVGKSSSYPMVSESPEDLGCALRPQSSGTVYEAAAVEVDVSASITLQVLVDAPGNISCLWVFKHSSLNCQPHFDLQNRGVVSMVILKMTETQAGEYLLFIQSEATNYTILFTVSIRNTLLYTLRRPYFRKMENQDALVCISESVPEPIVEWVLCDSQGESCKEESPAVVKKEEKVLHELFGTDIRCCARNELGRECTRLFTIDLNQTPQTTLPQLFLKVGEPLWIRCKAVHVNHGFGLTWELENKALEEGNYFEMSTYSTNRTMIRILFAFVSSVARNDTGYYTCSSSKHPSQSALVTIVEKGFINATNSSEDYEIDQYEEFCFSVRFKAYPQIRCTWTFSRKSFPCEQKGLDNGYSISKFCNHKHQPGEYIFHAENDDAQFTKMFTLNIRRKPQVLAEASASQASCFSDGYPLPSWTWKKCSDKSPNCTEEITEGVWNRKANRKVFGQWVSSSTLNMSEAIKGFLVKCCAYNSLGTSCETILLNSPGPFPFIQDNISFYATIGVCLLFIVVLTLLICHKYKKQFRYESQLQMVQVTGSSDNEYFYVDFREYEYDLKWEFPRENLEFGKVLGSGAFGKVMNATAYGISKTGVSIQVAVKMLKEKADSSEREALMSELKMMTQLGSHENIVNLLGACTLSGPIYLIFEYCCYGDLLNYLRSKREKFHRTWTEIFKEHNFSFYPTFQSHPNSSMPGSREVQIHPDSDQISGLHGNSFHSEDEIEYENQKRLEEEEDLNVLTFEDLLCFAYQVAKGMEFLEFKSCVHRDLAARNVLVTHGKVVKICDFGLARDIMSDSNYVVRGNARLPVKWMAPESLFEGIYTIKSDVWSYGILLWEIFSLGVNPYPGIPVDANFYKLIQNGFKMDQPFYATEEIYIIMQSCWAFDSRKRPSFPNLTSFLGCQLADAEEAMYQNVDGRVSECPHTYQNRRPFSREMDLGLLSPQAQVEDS
Nature of the series: Inhibition of FLT3.

Series [4] has as its target Mast/stem cell growth factor receptor Kit (Homo sapiens, UniProt P10721). In words: Inhibition of KIT.
A short description of series [5]: Cmax in BALB/c mouse at 2 mg/kg, iv. Format: ADME, organism-based. The arrangement: dose 2 mg/kg, route intravenous. To be noted: in vivo.
In series [6] the test system is Mus musculus. Nature of the series: AUC in BALB/c mouse at 2 mg/kg, iv. Format: ADME, organism-based, Plasma. The arrangement: dose 2 mg/kg, route intravenous. Conditions: in vivo.
Series [7] in a line: Volume of distribution at steady state in BALB/c mouse at 2 mg/kg, iv. Format: ADME, organism-based. The arrangement: dose 2 mg/kg, route intravenous. To be noted: in vivo, read-out: Vdss.
Series [8] can be described thus: Half life in BALB/c mouse at 2 mg/kg, iv. Format: ADME, organism-based. The arrangement: dose 2 mg/kg, route intravenous. Conditions: in vivo.
A short description of series [9]: Clearance in BALB/c mouse at 2 mg/kg, iv. Format: ADME, organism-based. The arrangement: dose 2 mg/kg, route intravenous. To be noted: in vivo.
A short description of series [10]: Cmax in BALB/c mouse at 10 mg/kg, po. The class given is ADME, organism-based. The arrangement: dose 10 mg/kg, route oral. To be noted: in vivo.
For series [11], the system named is Mus musculus. In words: AUC in BALB/c mouse at 10 mg/kg, po. The class given is ADME, organism-based, Plasma. The arrangement: dose 10 mg/kg, route oral. Conditions: in vivo.
The nature of series [12]: Half life in BALB/c mouse at 10 mg/kg, po. Format: ADME, organism-based. The arrangement: dose 10 mg/kg, route oral. Conditions: in vivo.
The test system of series [13] is Mus musculus. In words: Oral bioavailability in BALB/c mouse at 10 mg/kg. Format: ADME, organism-based. Conditions: in vivo.
A short description of series [14]: Cmax in rat at 2 mg/kg, iv. Format: ADME, organism-based. The arrangement: dose 2 mg/kg, route intravenous. Conditions: in vivo.
The test system of series [15] is Rattus norvegicus. Nature of the series: AUC in rat at 2 mg/kg, iv. Conditions: in vivo. The arrangement: dose 2 mg/kg, route intravenous. Format: ADME, organism-based, Plasma.
A short description of series [16]: Volume of distribution at steady state in rat at 2 mg/kg, iv. The class given is ADME, organism-based. The arrangement: dose 2 mg/kg, route intravenous. To be noted: in vivo, read-out: Vdss.
Series [17] can be described thus: Half life in rat at 2 mg/kg, iv. The class given is ADME, organism-based. To be noted: in vivo. The arrangement: dose 2 mg/kg, route intravenous.
Series [18] in a line: Clearance in rat at 2 mg/kg, iv. The class given is ADME, organism-based. The arrangement: dose 2 mg/kg, route intravenous. To be noted: in vivo.
The nature of series [19]: Cmax in rat at 10 mg/kg, po. The class given is ADME, organism-based. The arrangement: dose 10 mg/kg, route oral. To be noted: in vivo.
Series [20] is described as follows: Half life in rat at 10 mg/kg, po. Format: ADME, organism-based. Conditions: in vivo. The arrangement: dose 10 mg/kg, route oral.
Series [21] has as its system Rattus norvegicus. In words: Oral bioavailability in rat at 10 mg/kg. Format: ADME, organism-based. Conditions: in vivo.
The test system of series [22] is A-375. In words: Antiproliferative activity against human A375 cells at 100 uM. Format: functional, cell-based.
Series [23] has as its system HCT-116. In words: Antiproliferative activity against human HCT116 cells at 100 uM. The class given is functional, cell-based.
Series [24] relates to A-431. Nature of the series: Antitumor activity against human A431 cells xenografted po dosed mouse model measured after 10 to 14 days. Format: functional, organism-based.
For series [25], the system named is A-431. Nature of the series: Antitumor activity against human A431 cells xenografted mouse model measured at 100 to 200 mg/kg, po after 10 to 14 days. The class given is functional.
The test system of series [26] is HCT-116. In words: Antitumor activity against human HCT116 cells xenografted po dosed mouse model measured after 10 to 14 days. Format: functional, organism-based.
Series [27] has as its system HCT-116. Nature of the series: Antitumor activity against human HCT116 cells xenografted mouse model measured at 100 to 200 mg/kg, po after 10 to 14 days. Format: functional.
The test system of series [28] is Mus musculus. In words: Toxicity in mouse assessed as body weight at 100 to 200 mg/kg, po after 24 days. The class given is organism-based. The arrangement: dose 100-200 mg/kg, route oral. To be noted: in vivo, 576 h.
For series [29], the system named is A-375. Nature of the series: Antitumor activity against human A375 cells xenografted mouse model assessed as growth inhibition at 100 mg/kg, po. The class given is functional.

Sequence of Vascular endothelial growth factor receptor 2 (P35968 whole entry): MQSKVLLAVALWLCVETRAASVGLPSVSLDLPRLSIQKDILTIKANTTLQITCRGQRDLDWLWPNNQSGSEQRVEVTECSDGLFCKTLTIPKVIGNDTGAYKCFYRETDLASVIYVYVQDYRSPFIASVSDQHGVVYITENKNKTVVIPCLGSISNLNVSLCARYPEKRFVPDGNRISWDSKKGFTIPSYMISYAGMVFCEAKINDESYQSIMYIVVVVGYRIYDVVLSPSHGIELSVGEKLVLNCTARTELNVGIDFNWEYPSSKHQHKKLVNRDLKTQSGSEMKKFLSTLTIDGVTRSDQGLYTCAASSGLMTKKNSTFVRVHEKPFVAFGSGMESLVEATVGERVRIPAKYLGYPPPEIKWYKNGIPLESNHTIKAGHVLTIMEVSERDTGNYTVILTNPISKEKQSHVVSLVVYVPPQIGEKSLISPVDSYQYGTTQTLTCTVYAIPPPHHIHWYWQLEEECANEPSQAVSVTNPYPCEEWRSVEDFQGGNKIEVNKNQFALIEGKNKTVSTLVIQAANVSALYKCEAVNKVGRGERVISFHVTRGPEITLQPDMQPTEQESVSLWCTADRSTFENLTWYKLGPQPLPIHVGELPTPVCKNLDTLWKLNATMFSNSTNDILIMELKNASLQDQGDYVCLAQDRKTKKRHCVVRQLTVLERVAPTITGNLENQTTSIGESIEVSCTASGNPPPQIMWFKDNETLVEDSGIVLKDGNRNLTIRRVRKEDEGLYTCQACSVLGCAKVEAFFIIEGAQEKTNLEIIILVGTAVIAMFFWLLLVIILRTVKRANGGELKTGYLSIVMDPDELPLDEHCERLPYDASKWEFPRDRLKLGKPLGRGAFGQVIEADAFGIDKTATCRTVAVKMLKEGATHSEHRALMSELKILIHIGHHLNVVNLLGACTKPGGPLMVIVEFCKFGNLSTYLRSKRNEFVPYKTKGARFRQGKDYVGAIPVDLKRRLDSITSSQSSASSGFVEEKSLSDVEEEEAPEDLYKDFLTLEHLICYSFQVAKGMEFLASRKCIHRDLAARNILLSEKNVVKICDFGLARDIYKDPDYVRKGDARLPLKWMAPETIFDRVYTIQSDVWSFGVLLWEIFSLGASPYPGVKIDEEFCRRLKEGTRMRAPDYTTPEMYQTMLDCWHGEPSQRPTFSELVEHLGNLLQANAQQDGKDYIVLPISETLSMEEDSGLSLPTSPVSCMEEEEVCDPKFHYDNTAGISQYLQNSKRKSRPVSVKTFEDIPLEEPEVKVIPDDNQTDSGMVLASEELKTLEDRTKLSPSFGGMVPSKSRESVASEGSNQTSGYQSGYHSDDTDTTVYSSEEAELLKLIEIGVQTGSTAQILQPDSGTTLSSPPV
Sequence of Mast/stem cell growth factor receptor Kit (P10721 whole entry): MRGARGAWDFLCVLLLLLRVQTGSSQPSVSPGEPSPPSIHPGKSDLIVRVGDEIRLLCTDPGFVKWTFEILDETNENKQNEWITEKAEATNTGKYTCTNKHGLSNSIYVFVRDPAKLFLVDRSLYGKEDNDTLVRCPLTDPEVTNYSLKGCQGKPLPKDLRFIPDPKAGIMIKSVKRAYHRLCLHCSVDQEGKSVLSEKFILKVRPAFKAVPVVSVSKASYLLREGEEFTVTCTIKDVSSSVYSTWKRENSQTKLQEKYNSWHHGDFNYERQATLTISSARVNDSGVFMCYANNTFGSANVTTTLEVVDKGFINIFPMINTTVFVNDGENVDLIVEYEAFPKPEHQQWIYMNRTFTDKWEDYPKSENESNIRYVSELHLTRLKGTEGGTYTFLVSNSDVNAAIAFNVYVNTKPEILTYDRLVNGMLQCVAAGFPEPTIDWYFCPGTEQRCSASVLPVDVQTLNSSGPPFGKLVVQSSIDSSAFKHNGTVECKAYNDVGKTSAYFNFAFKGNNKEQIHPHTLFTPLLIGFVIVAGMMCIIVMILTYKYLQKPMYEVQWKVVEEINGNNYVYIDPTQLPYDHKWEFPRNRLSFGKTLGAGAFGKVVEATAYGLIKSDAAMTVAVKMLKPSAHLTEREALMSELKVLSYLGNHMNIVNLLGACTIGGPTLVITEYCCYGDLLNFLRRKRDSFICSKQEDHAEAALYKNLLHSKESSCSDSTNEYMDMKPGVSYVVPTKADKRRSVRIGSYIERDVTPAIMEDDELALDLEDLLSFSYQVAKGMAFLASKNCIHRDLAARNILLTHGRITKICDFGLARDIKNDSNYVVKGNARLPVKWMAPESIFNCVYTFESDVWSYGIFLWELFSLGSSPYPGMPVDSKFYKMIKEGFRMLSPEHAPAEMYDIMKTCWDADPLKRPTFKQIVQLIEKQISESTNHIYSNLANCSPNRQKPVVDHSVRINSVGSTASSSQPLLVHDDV

`CO/N=C/c1c(N)ncnc1Oc1ccc(NC(=O)NCCN(C)C)c(Cl)c1` gave a pIC50 in series [1] of 6.55. Same read-out and setting: with `CO/N=C/c1c(N)ncnc1Oc1ccc(NC(=O)Nc2ccccc2OC)c(Cl)c1` the figure was 8.60.

In the case of `CCNC(=O)Nc1ccc(Oc2ncnc(N)c2/C=N/OC)cc1Cl`, the values for the pIC50 in [2], in series [3] and in [4] were 5.35, 5.32 and 6.29, respectively. Besides, the Cmax in series [5] came out at 2990 ng/mL; in series [10], 2790 ng/mL; in [14], 5400 ng/mL; in series [19], 1030 ng/mL. The AUC in series [6] was 6114 ng·h/mL; in series [11], 12305 ng·h/mL; in [15] it was 4799 ng·h/mL. In addition, the Vd came to 0.7 L/kg in [7] and 0.4 L/kg in series [16]. For the same molecule, the half-life in [8] is 2.8 h; in series [12], 2.1 h; in series [17], 0.7 h; in series [20], 10 h. Moreover, the values for the clearance in series [9] and in [18] were 5.6 mL/min/kg and 7.4 mL/min/kg, respectively. The F in [13] is 16%; in series [21] it was 30%. Besides, the result in [22] and in series [23] was inactive. Also, the Activity result is “Dose-dependent effect” in series [24], “Dose-dependent effect” in series [26] and “Non-toxic” in [28]. For the same molecule, the “inhibition (INH)” value in series [25] and in series [27] was 90% throughout. Further, the inhibition in vivo at 100 mg/kg in series [29] came out at 90%. `CO/N=C/c1c(N)ncnc1Oc1ccc(NC(=O)Nc2ccc(F)cc2)c(Cl)c1` showed a pIC50 in [1] of 8.55. On to `CO/N=C/c1c(N)ncnc1Oc1ccc(NC(=O)Nc2cccc(F)c2)c(Cl)c1`, for which the pIC50 in series [1] is 8.77. Same read-out and setting: as for `CO/N=C/c1c(N)ncnc1Oc1ccc(NC(=O)Nc2cccnc2)c(Cl)c1`, the figure is 8.00; as for `CO/N=C/c1c(N)ncnc1Oc1ccc(NC(=O)Nc2ccc(F)cc2F)c(Cl)c1`, 8.52.

In series [1], `CO/N=C/c1c(N)ncnc1Oc1ccc(NC(=O)NC2CC2)c(Cl)c1` showed a pIC50 of 7.54. On the same count and under the same terms, with `CO/N=C/c1c(N)ncnc1Oc1ccc(NC(C)=O)cc1Cl` the figure was 5.66; with `CO/N=C/c1c(N)ncnc1Oc1ccc(NC(=O)OC)cc1Cl`, 6.82. Still for that read-out and setting: as for `CO/N=C/c1c(N)ncnc1Oc1ccc(NC(=O)NC(C)C)c(Cl)c1`, the figure is 7.14; as for `CCNC(=O)Oc1ccc(Oc2ncnc(N)c2/C=N/OC)cc1`, < 4.00; as for `CO/N=C/c1c(N)ncnc1Oc1ccc(NC(=O)Nc2ccccc2)c(Cl)c1`, 8.52. The same measure, in the same setting: with `CNC(=O)Nc1ccc(Oc2ncnc(N)c2/C=N/OC)cc1Cl` the figure was 7.60; with `CNC(=O)Nc1ccc(Oc2ncnc(N)c2/C=N/OC)c(F)c1`, 6.85; with `CO/N=C/c1c(N)ncnc1Oc1ccc(NC(=O)NC2CCCCC2)c(Cl)c1`, 8.19. Turning to `CNC(=O)Cc1ccc(Oc2ncnc(N)c2/C=N/OC)cc1`, the pIC50 in [1] is 4.71. `CO/N=C/c1c(N)ncnc1Oc1ccc(NC(=O)Nc2nccs2)c(Cl)c1` showed a pIC50 in series [1] of 8.47. The same measure, in the same setting: as for `CNC(=O)Nc1ccc(Oc2ncnc(N)c2/C=N/OC)c(Br)c1`, the figure is < 4.00; as for `CO/N=C/c1c(N)ncnc1Oc1ccc(NC(=O)NCCCCN2CCCC2)c(Cl)c1`, 6.12; as for `CO/N=C/c1c(N)ncnc1Oc1ccc(NC(=O)Nc2nc(C)c(C)s2)c(Cl)c1`, 8.70. For `CO/N=C/c1c(N)ncnc1Oc1ccc(NC(=O)Nc2cc(C)on2)c(Cl)c1`, the pIC50 in series [1] was 8.70. `CO/N=C/c1c(N)ncnc1Oc1ccc(NC(=O)NCCCO)c(Cl)c1` showed a pIC50 in [1] of 6.40.

In turn, `CO/N=C/c1c(N)ncnc1Oc1ccc(NC(=O)NCCO)c(Cl)c1` gave a pIC50 in [1] of 6.77. Same read-out and setting: as for `CCCNC(=O)Nc1ccc(Oc2ncnc(N)c2/C=N/OC)cc1Cl`, the figure is 7.55; as for `CO/N=C/c1c(N)ncnc1Oc1ccc(NC(=O)Nc2ccccc2C)c(Cl)c1`, 8.10. Same read-out and setting: as for `CO/N=C/c1c(N)ncnc1Oc1ccc(NC(=O)Nc2ccncc2)c(Cl)c1`, the figure is 7.96; as for `CO/N=C/c1c(N)ncnc1Oc1ccc(NC(=O)NCc2ccc(F)cc2F)c(Cl)c1`, 7.99; as for `CO/N=C/c1c(N)ncnc1Oc1ccc(NC(=O)Nc2ccccn2)c(Cl)c1`, 7.47. Same read-out and setting: as for `CCNC(=O)Nc1ccc(Oc2ncnc(N)c2/C=N/OC)cc1`, the figure is 6.85. Consider `CO/N=C/c1c(N)ncnc1Oc1ccc(NC(=O)Nc2ccccc2F)c(Cl)c1`, for which, in series [1], the pIC50 was 8.48. Still for that read-out and setting: as for `CCNC(=O)Nc1ccc(Oc2ncnc(N)c2/C=N/OC)c(C)c1`, the figure is 6.74. The molecule `CO/N=C/c1c(N)ncnc1Oc1ccc(NC(=O)Nc2ccccc2Cl)c(Cl)c1` showed a negative-log IC50 (pIC50) in series [1] of 8.59.
